SMILES strings stand for the structures.

The target in this test is human capsaicin receptor (VR1) (Homo sapiens, UniProt Q8NER1). In words: Capsaicin receptor binding assay ([3H]RTX competition, VR1-transfected HEK293 membranes).
Chain of human capsaicin receptor (VR1) (Q8NER1 whole entry): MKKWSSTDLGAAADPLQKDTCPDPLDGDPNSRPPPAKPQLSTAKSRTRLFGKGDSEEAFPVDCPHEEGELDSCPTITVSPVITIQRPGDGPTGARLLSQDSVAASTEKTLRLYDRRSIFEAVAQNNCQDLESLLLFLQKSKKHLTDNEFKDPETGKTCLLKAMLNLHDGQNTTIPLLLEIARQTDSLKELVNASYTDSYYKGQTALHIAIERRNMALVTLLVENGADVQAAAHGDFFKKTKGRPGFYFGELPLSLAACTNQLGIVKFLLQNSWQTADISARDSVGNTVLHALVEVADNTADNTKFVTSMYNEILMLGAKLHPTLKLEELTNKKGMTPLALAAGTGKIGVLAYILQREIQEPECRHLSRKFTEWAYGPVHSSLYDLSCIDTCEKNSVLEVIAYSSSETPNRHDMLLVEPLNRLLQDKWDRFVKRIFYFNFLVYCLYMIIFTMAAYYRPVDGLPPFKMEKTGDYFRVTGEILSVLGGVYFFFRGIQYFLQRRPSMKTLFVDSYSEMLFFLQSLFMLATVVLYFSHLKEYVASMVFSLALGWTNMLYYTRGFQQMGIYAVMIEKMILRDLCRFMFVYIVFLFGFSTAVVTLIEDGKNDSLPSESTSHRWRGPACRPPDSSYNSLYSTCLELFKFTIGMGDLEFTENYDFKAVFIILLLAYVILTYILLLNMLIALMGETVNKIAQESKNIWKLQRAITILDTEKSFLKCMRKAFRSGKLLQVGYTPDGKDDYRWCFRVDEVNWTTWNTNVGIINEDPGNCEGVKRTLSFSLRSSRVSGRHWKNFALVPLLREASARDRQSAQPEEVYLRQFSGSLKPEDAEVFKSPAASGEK
As a reminder, the Ki is the dissociation constant of the complex between target and ligand, obtained from inhibition or displacement. Read a high Ki as a looser hold on the target. As to `CCOCc1nc(Nc2ccc(C(F)F)cc2)c2ccc(-c3ncccc3Cl)nc2n1` [Compound 244, [7-(3-Chloro-pyridin-2-yl)-2-ethoxymethyl-pyrido[2,3-d]pyrimidin-4-yl]-(4-difluoromethyl-phenyl)-amine], the Ki was less than 1000 nM.
The result for `CO[C@H](C)c1nc(Nc2ccc(C(F)(F)F)cc2)c2ccc(-c3ncccc3Cl)nc2n1` [Compound 245, (R)-[7-(3-Chloro-pyridin-2-yl)-2-(1-methoxy-ethyl)-pyrido[2,3-d]pyrimidin-4-yl]-(4-trifluoromethyl-phenyl)-amine] reads less than 1000 nM; that for `CN1CCC(COCc2nc(Nc3ccc(C(F)(F)F)cc3)c3ccc(-c4ncccc4C(F)(F)F)cc3n2)CC1` [Compound 247, [2-(1-Methyl-piperidin-4-ylmethoxymethyl)-7-(3-trifluoromethyl-pyridin-2-yl)-quinazolin-4-yl]-(4-trifluoromethyl-phenyl)-amine], less than 1000 nM.
With `CC(C)COCc1nc(Nc2ccc(F)cc2)c2ccc(-c3ncccc3C(F)(F)F)nc2n1` [Compound 248, (4-Fluoro-phenyl)-[2-isobutoxymethyl-7-(3-trifluoromethyl-pyridin-2-yl)-pyrido[2,3-d]pyrimidin-4-yl]-amine] the figure was less than 1000 nM.
In the case of `CC(C)COCc1nc(Nc2ccc(Cl)cc2)c2ccc(-c3ncccc3C(F)(F)F)nc2n1` [Compound 249, (4-Chloro-phenyl)-[2-isobutoxymethyl-7-(3-trifluoromethyl-pyridin-2-yl)-pyrido[2,3-d]pyrimidin-4-yl]-amine], the Ki was less than 1000 nM.
The result for `CC(=O)c1ccc(Nc2nc(COCC(C)C)nc3nc(-c4ncccc4C(F)(F)F)ccc23)cc1` [Compound 250, 1-{4-[2-Isobutoxymethyl-7-(3-trifluoromethyl-pyridin-2-yl)-pyrido[2,3-d]pyrimidin-4-ylamino]-phenyl}-ethanone] reads less than 1000 nM; that for `CCOc1ccc(Nc2nc(COCC(C)C)nc3nc(-c4ncccc4C(F)(F)F)ccc23)cc1` [Compound 251, (4-Ethoxy-phenyl)-[2-isobutoxymethyl-7-(3-trifluoromethyl-pyridin-2-yl)-pyrido[2,3-d]pyrimidin-4-yl]-amine], less than 1000 nM.
Regarding `CC(C)COCc1nc(Nc2ccc(F)c(F)c2)c2ccc(-c3ncccc3C(F)(F)F)nc2n1` [Compound 252, (3,4-Difluoro-phenyl)-[2-isobutoxymethyl-7-(3-trifluoromethyl-pyridin-2-yl)-pyrido[2,3-d]pyrimidin-4-yl]-amine], the Ki is less than 1000 nM.
The result for `Cc1cc(Nc2nc(COCC(C)C)nc3nc(-c4ncccc4C(F)(F)F)ccc23)ccc1F` [Compound 253, (4-Fluoro-3-methyl-phenyl)-[2-isobutoxymethyl-7-(3-trifluoromethyl-pyridin-2-yl)-pyrido[2,3-d]pyrimidin-4-yl]-amine] reads less than 1000 nM; that for `CC(C)COCc1nc(Nc2ccc(F)c(C(F)(F)F)c2)c2ccc(-c3ncccc3C(F)(F)F)nc2n1` [Compound 254, (4-Fluoro-3-trifluoromethyl-phenyl)-[2-isobutoxymethyl-7-(3-trifluoromethyl-pyridin-2-yl)-pyrido[2,3-d]pyrimidin-4-yl]-amine], less than 1000 nM; that for `CC(C)COCc1nc(Nc2ccc(Cl)c(C(F)(F)F)c2)c2ccc(-c3ncccc3C(F)(F)F)nc2n1` [Compound 255, (4-Chloro-3-trifluoromethyl-phenyl)-[2-isobutoxymethyl-7-(3-trifluoromethyl-pyridin-2-yl)-pyrido[2,3-d]pyrimidin-4-yl]-amine], less than 1000 nM.
The result for `COc1ccc(Nc2nc(COCC(C)C)nc3nc(-c4ncccc4C(F)(F)F)ccc23)cc1C(F)(F)F` [Compound 256, [2-Isobutoxymethyl-7-(3-trifluoromethyl-pyridin-2-yl)-pyrido[2,3-d]pyrimidin-4-yl]-(4-methoxy-3-trifluoromethyl-phenyl)-amine] reads less than 1000 nM; that for `Cc1ccc(Nc2nc(COCC(C)C)nc3nc(-c4ncccc4C(F)(F)F)ccc23)cc1C` [Compound 257, (3,4-Dimethyl-phenyl)-[2-isobutoxymethyl-7-(3-trifluoromethyl-pyridin-2-yl)-pyrido[2,3-d]pyrimidin-4-yl]-amine], less than 1000 nM.
With `COc1ccc(Nc2nc(COCC(C)C)nc3nc(-c4ncccc4C(F)(F)F)ccc23)cc1F` [Compound 258, (3-Fluoro-4-methoxy-phenyl)-[2-isobutoxymethyl-7-(3-trifluoromethyl-pyridin-2-yl)-pyrido[2,3-d]pyrimidin-4-yl]-amine] the figure was less than 1000 nM; with `CC(C)COCc1nc(Nc2ccc(F)cc2)c2ccc(-c3ncccc3Cl)nc2n1` [Compound 259, [7-(3-Chloro-pyridin-2-yl)-2-isobutoxymethyl-pyrido[2,3-d]pyrimidin-4-yl]-(4-fluoro-phenyl)-amine], less than 1000 nM.
For the compound `CC(C)COCc1nc(Nc2ccc(Cl)cc2)c2ccc(-c3ncccc3Cl)nc2n1` [Compound 260, (4-Chloro-phenyl)-[7-(3-chloro-pyridin-2-yl)-2-isobutoxymethyl-pyrido[2,3-d]pyrimidin-4-yl]-amine], the inhibition constant Ki was less than 1000 nM.
In the case of `CC(C)COCc1nc(Nc2ccc(C#N)cc2)c2ccc(-c3ncccc3Cl)nc2n1` [Compound 261, 4-[7-(3-Chloro-pyridin-2-yl)-2-isobutoxymethyl-pyrido[2,3-d]pyrimidin-4-ylamino]-benzonitrile], the Ki was less than 1000 nM.
The result for `CC(=O)c1ccc(Nc2nc(COCC(C)C)nc3nc(-c4ncccc4Cl)ccc23)cc1` [Compound 262, 1-{4-[7-(3-Chloro-pyridin-2-yl)-2-isobutoxymethyl-pyrido(2,3-d]pyrimidin-4-ylamino]-phenyl}-ethanone] reads less than 1000 nM.
With `CC(C)COCc1nc(Nc2ccc(N3CCOCC3)cc2)c2ccc(-c3ncccc3Cl)nc2n1` [Compound 263, [7-(3-Chloro-pyridin-2-yl)-2-isobutoxymethyl-pyrido[2,3-d]pyrimidin-4-yl]-(4-morpholin-4-yl-phenyl)-amine] the figure was less than 1000 nM; with `CCOc1ccc(Nc2nc(COCC(C)C)nc3nc(-c4ncccc4Cl)ccc23)cc1` [Compound 264, [7-(3-Chloro-pyridin-2-yl)-2-isobutoxymethyl-pyrido[2,3-d]pyrimidin-4-yl]-(4-ethoxy-phenyl)-amine], less than 1000 nM; with `CCc1ccc(Nc2nc(COCC(C)C)nc3nc(-c4ncccc4Cl)ccc23)cc1` [Compound 265, [7-(3-Chloro-pyridin-2-yl)-2-isobutoxymethyl-pyrido[2,3-d]pyrimidin-4-yl]-(4-ethyl-phenyl)-amine], less than 1000 nM.
The result for `CCCc1ccc(Nc2nc(COCC(C)C)nc3nc(-c4ncccc4Cl)ccc23)cc1` [Compound 266, [7-(3-Chloro-pyridin-2-yl)-2-isobutoxymethyl-pyrido[2,3-d]pyrimidin-4-yl]-(4-propyl-phenyl)-amine] reads less than 1000 nM.
For `COC(=O)c1ccc(Nc2nc(COCC(C)C)nc3nc(-c4ncccc4Cl)ccc23)cc1` [Compound 267, 4-[7-(3-Chloro-pyridin-2-yl)-2-isobutoxymethyl-pyrido[2,3-d]pyrimidin-4-ylamino]-benzoic acid methyl ester], the Ki is less than 1000 nM.
With `CC(C)COCc1nc(Nc2ccc(F)c(F)c2)c2ccc(-c3ncccc3Cl)nc2n1` [Compound 268, [7-(3-Chloro-pyridin-2-yl)-2-isobutoxymethyl-pyrido[2,3-d]pyrimidin-4-yl]-(3,4-difluoro-phenyl)-amine] the figure was less than 1000 nM; with `Cc1cc(Nc2nc(COCC(C)C)nc3nc(-c4ncccc4Cl)ccc23)ccc1F` [Compound 269, [7-(3-Chloro-pyridin-2-yl)-2-isobutoxymethyl-pyrido[2,3-d]pyrimidin-4-yl]-(4-fluoro-3-methyl-phenyl)-amine], less than 1000 nM; with `CC(C)COCc1nc(Nc2cccc(C(F)(F)F)c2)c2ccc(-c3ncccc3C(F)(F)F)nc2n1` [Compound 270, [2-Isobutoxymethyl-7-(3-trifluoromethyl-pyridin-2-yl)-pyrido[2,3-d]pyrimidin-4-yl]-(3-trifluoromethyl-phenyl)-amine], less than 1000 nM.
With `CC(C)COCc1nc(Nc2cccc(Cl)c2)c2ccc(-c3ncccc3C(F)(F)F)nc2n1` [Compound 271, (3-Chloro-phenyl)-[2-isobutoxymethyl-7-(3-trifluoromethyl-pyridin-2-yl)-pyrido[2,3-d]pyrimidin-4-yl]-amine] the figure was less than 1000 nM.
With `CC(C)COCc1nc(Nc2ccc(C#N)cc2)c2ccc(-c3ncccc3C(F)(F)F)nc2n1` [Compound 272, 4-[2-Isobutoxymethyl-7-(3-trifluoromethyl-pyridin-2-yl)-pyrido[2,3-d]pyrimidin-4-ylamino]-benzonitrile] the figure was less than 1000 nM; with `CC(C)COCc1nc(Nc2ccc(Cl)c(F)c2)c2ccc(-c3ncccc3C(F)(F)F)nc2n1` [Compound 273, (4-Chloro-3-fluoro-phenyl)-[2-isobutoxymethyl-7-(3-trifluoromethyl-pyridin-2-yl)-pyrido[2,3-d]pyrimidin-4-yl]-amine], less than 1000 nM.
`Cc1cc(Nc2nc(COCC(C)C)nc3nc(-c4ncccc4C(F)(F)F)ccc23)ccc1Cl` [Compound 274, (4-Chloro-3-methyl-phenyl)-[2-isobutoxymethyl-7-(3-trifluoromethyl-pyridin-2-yl)-pyrido[2,3-d]pyrimidin-4-yl]-amine] registered a Ki of less than 1000 nM.
With `CC(C)COCc1nc(Nc2ccc(F)c(Cl)c2)c2ccc(-c3ncccc3C(F)(F)F)nc2n1` [Compound 275, (3-Chloro-4-fluoro-phenyl)-[2-isobutoxymethyl-7-(3-trifluoromethyl-pyridin-2-yl)-pyrido[2,3-d]pyrimidin-4-yl]-amine] the figure was less than 1000 nM; with `Cc1ccc(Nc2nc(COCC(C)C)nc3nc(-c4ncccc4C(F)(F)F)ccc23)cc1C(F)(F)F` [Compound 276, [2-Isobutoxymethyl-7-(3-trifluoromethyl-pyridin-2-yl)-pyrido[2,3-d]pyrimidin-4-yl]-(4-methyl-3-trifluoromethyl-phenyl)-amine], less than 1000 nM.
The result for `CC(C)COCc1nc(Nc2ccc(CO)cc2)c2ccc(-c3ncccc3Cl)nc2n1` [Compound 277, {4-[7-(3-Chloro-pyridin-2-yl)-2-isobutoxymethyl-pyrido[2,3-d]pyrimidin-4-ylamino]-phenyl}-methanol] reads less than 1000 nM.

The values are drawn from patent publication US20040156869A1, “2-substituted quinazolin-4-ylamine analogues” (Neurogen Corporation, priority 2002, published 2004).
